Laboratory results as given in PubChem BioAssay AID248 (DTP/NCI, 2004).
Values joined by “and” are separate entries in the source; they are usually repeats but may differ in a detail not shown here. Equal entries are not always repeated. Inconclusive results and toxic doses are left out. Rule as the data show it: active = T/C of 150% or more; inactive = T/C below 125%.

Tested on: L1210 leukemia ip in BDF1 mice, survival T/C
Assay: NCI In Vivo Anticancer Drug Screen. Data for tumor model L1210 Leukemia (intraperitoneal) in B6D2F1 (BDF1) mice
Conditions: endpoint: mean survival time, higher = longer survival
Outline: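 Read-out is survival time, reported as the treated-group measurement over the vehicle-control measurement.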

[1] = dose: 100.0 mg/kg/injection, schedule: Q01DX001 (ip), vehicle: saline
[2] = dose: 200.0 mg/kg/injection, schedule: Q01DX001 (ip), vehicle: saline
[3] = dose: 400.0 mg/kg/injection, schedule: Q01DX001 (ip), vehicle: saline
[4] = dose: 25.0 mg/kg/injection, schedule: Q01DX009 (ip), vehicle: saline with Tween-80
[5] = dose: 50.0 mg/kg/injection, schedule: Q01DX009 (ip), vehicle: saline with Tween-80
[6] = dose: 100.0 mg/kg/injection, schedule: Q01DX009 (ip), vehicle: saline with Tween-80
[7] = dose: 100.0 mg/kg/injection, schedule: Q04DX002 (ip), vehicle: Klucel (hydroxypropylcellulose) (HPC)
[8] = dose: 200.0 mg/kg/injection, schedule: Q04DX002 (ip), vehicle: Klucel (hydroxypropylcellulose) (HPC)
[9] = dose: 400.0 mg/kg/injection, schedule: Q04DX002 (ip), vehicle: Klucel (hydroxypropylcellulose) (HPC)
[10] = dose: 100.0 mg/kg/injection, schedule: Q01DX001 (ip), vehicle: Klucel (hydroxypropylcellulose) (HPC)
[11] = dose: 200.0 mg/kg/injection, schedule: Q01DX001 (ip), vehicle: Klucel (hydroxypropylcellulose) (HPC)
[12] = dose: 400.0 mg/kg/injection, schedule: Q01DX001 (ip), vehicle: Klucel (hydroxypropylcellulose) (HPC)
[13] = dose: 100.0 mg/kg/injection, schedule: Q01DX001 (ip), vehicle: carboxymethylcellulose (CMC)
[14] = dose: 200.0 mg/kg/injection, schedule: Q01DX001 (ip), vehicle: carboxymethylcellulose (CMC)
[15] = dose: 400.0 mg/kg/injection, schedule: Q01DX001 (ip), vehicle: carboxymethylcellulose (CMC)
[16] = dose: 100.0 mg/kg/injection, schedule: Q04DX003 (ip), vehicle: Klucel (hydroxypropylcellulose) (HPC)
[17] = dose: 200.0 mg/kg/injection, schedule: Q04DX003 (ip), vehicle: Klucel (hydroxypropylcellulose) (HPC)
[18] = dose: 400.0 mg/kg/injection, schedule: Q04DX003 (ip), vehicle: Klucel (hydroxypropylcellulose) (HPC)
[19] = dose: 100.0 mg/kg/injection, schedule: Q01DX009 (ip), vehicle: Klucel (hydroxypropylcellulose) (HPC)
[20] = dose: 200.0 mg/kg/injection, schedule: Q01DX009 (ip), vehicle: Klucel (hydroxypropylcellulose) (HPC)
[21] = dose: 400.0 mg/kg/injection, schedule: Q01DX009 (ip), vehicle: Klucel (hydroxypropylcellulose) (HPC)
[22] = dose: 25.0 mg/kg/injection, schedule: Q01DX009 (ip), vehicle: saline

Measured: T/C

O=C(Nc1nccs1)C(F)(F)F
inactive: [1] 109 % of control | [2] 109 % of control | [3] 102 % of control

O=S(=O)(F)c1c(Cl)cccc1CBr
inactive: [4] 100 % of control | [5] 96 % of control | [6] 86 % of control

CCOC(=O)C1C(=O)CC(=O)C(C(=O)OCC)C1c1cc(OC)c(OC)c(OC)c1 (centres undefined)
inactive: [7] 91 % of control | [8] 91 % of control | [9] 94 % of control

OCC1c2ccccc2C(CO)c2c1ccc1ccccc21 (centres undefined)
inactive: [10] 98 % of control | [11] 98 % of control | [12] 100 % of control

CN(C)C(N)=Nc1ccc(Cl)cc1
inactive: dose: 12.5 mg/kg/injection, schedule: Q01DX009 (ip), vehicle: Klucel (hydroxypropylcellulose) (HPC) 97 % of control | dose: 25.0 mg/kg/injection, schedule: Q01DX009 (ip), vehicle: Klucel (hydroxypropylcellulose) (HPC) 98 % of control | dose: 50.0 mg/kg/injection, schedule: Q01DX009 (ip), vehicle: Klucel (hydroxypropylcellulose) (HPC) 89 % of control

Cc1ccc(NC(N)=S)cc1C
inactive: [4] 105 % of control | [5] 90 % of control | [6] 86 % of control

COc1cc(C(C)S(=O)(=O)c2ccc(C)cc2)ccc1O (centres undefined)
inactive: [13] 89 % of control | [14] 93 % of control | [15] 93 % of control

O=C(OCCBr)Oc1cccc2ccccc12
inactive: [13] 98 % of control | [14] 93 % of control | [15] 95 % of control

NC(=O)CSc1nnc(SCC(N)=O)s1
inactive: [16] 106 % of control | [17] 101 % of control | [18] 90 % of control

CC(CCl)=C(B1OC(C)(C)C(C)(C)O1)B1OC(C)(C)C(C)(C)O1
inactive: [10] 110 % of control | [11] 94 % of control | [12] 92 % of control

COC(=O)c1ccccc1Cc1cccc2c(Cl)cccc12
inactive: [10] 97 % of control | [11] 98 % of control | [12] 106 % of control

CC(C)(C)c1cc(C(C)(C)C)c(O)c(C(C)(C)C)c1
inactive: dose: 100.0 mg/kg/injection, schedule: Q01DX001 (ip), vehicle: saline with Tween-80 91 % of control | [6] 92 % of control | dose: 100.0 mg/kg/injection, schedule: Q04DX003 (ip), vehicle: saline with Tween-80 98 % of control | dose: 200.0 mg/kg/injection, schedule: Q01DX001 (ip), vehicle: saline with Tween-80 95 % of control | dose: 200.0 mg/kg/injection, schedule: Q01DX009 (ip), vehicle: saline with Tween-80 96 % of control | dose: 200.0 mg/kg/injection, schedule: Q04DX003 (ip), vehicle: saline with Tween-80 98 % of control | dose: 400.0 mg/kg/injection, schedule: Q01DX001 (ip), vehicle: saline with Tween-80 87 % of control | dose: 400.0 mg/kg/injection, schedule: Q01DX009 (ip), vehicle: saline with Tween-80 93 % of control | dose: 400.0 mg/kg/injection, schedule: Q04DX003 (ip), vehicle: saline with Tween-80 93 % of control

NC(CSSCC(NC(=O)C(F)(F)F)C(=O)O)C(=O)O (centres undefined)
inactive: dose: 50.0 mg/kg/injection, schedule: Q01DX001 (ip), vehicle: saline 96 % of control | [1] 98 % of control | [2] 93 % of control

CCC/C(=N\Nc1ccc([N+](=O)[O-])cc1[N+](=O)[O-])c1cccc([N+](=O)[O-])c1
inactive: [16] 93 % of control | [17] 92 % of control | [18] 97 % of control

COc1ccc(C#N)cc1OC
inactive: dose: 6.25 mg/kg/injection, schedule: Q04DX002 (ip), vehicle: Klucel (hydroxypropylcellulose) (HPC) 93 % of control | dose: 12.5 mg/kg/injection, schedule: Q04DX002 (ip), vehicle: Klucel (hydroxypropylcellulose) (HPC) 96 % of control | dose: 25.0 mg/kg/injection, schedule: Q04DX002 (ip), vehicle: Klucel (hydroxypropylcellulose) (HPC) 93 % of control and 96 % of control | [7] 100 % of control | [8] 92 % of control

O=C(Nc1ccc(S(=O)(=O)O)c2ccccc12)c1ccc(C(=O)Nc2ccc(S(=O)(=O)O)c3ccccc23)cc1
inactive: dose: 62.5 mg/kg/injection, schedule: Q01DX Z (ip), vehicle: carboxymethylcellulose (CMC) 92 % of control | dose: 125.0 mg/kg/injection, schedule: Q01DX Z (ip), vehicle: carboxymethylcellulose (CMC) 89 % of control | dose: 250.0 mg/kg/injection, schedule: Q01DX Z (ip), vehicle: carboxymethylcellulose (CMC) 90 % of control | dose: 500.0 mg/kg/injection, schedule: Q01DX Z (ip), vehicle: carboxymethylcellulose (CMC) 89 % of control

CCOC(=O)C1=NNC(C(C)=O)(C(=O)OCC)C1CC (centres undefined)
inactive: [19] 102 % of control | [20] 95 % of control | [21] 96 % of control

O=S(=O)(O)c1ccc2cc(O)c(O)cc2c1
inactive: [7] 91 % of control | [8] 95 % of control | [9] 95 % of control

O=C(N/N=C/c1ccc(Cl)cc1Cl)c1ccccc1
inactive: [16] 101 % of control | [17] 95 % of control

Clc1ccc(C(c2ccc(Cl)cc2)c2ccccn2)cc1
inactive: [19] 92 % of control | [16] 98 % of control | [20] 97 % of control | [17] 95 % of control | [18] 97 % of control

CC(C)NNC(C)Cc1ccccc1 (centres undefined)
inactive: dose: 25.0 mg/kg/injection, schedule: Q04DX003 (ip), vehicle: Klucel (hydroxypropylcellulose) (HPC) 104 % of control | dose: 50.0 mg/kg/injection, schedule: Q04DX003 (ip), vehicle: Klucel (hydroxypropylcellulose) (HPC) 102 % of control | [16] 98 % of control

CSc1nc(C)cc(SC(=N)N)n1
inactive: [22] 105 % of control | dose: 25.0 mg/kg/injection, schedule: Q04DX003 (ip), vehicle: saline 98 % of control | dose: 50.0 mg/kg/injection, schedule: Q01DX009 (ip), vehicle: saline 102 % of control | dose: 50.0 mg/kg/injection, schedule: Q04DX003 (ip), vehicle: saline 97 % of control | dose: 100.0 mg/kg/injection, schedule: Q04DX003 (ip), vehicle: saline 100 % of control and 101 % of control

NC(N)=N/N=C/c1cccc(Cl)c1Cl
inactive: dose: 7.5 mg/kg/injection, schedule: Q01DX Z (ip), vehicle: other 97 % of control | dose: 15.0 mg/kg/injection, schedule: Q01DX Z (ip), vehicle: other 100 % of control | dose: 30.0 mg/kg/injection, schedule: Q01DX Z (ip), vehicle: other 92 % of control | dose: 60.0 mg/kg/injection, schedule: Q01DX Z (ip), vehicle: other 86 % of control

CC(C)(C)OC(=O)CCSC(C)(C)C
inactive: [10] 96 % of control | [11] 96 % of control | [12] 96 % of control

O/N=C(/CBr)c1ccccc1
inactive: dose: 12.5 mg/kg/injection, schedule: Q04DX002 (ip), vehicle: gum acacia 109 % of control | dose: 25.0 mg/kg/injection, schedule: Q04DX002 (ip), vehicle: gum acacia 87 % of control | dose: 50.0 mg/kg/injection, schedule: Q04DX002 (ip), vehicle: gum acacia 102 % of control

OCC1OC(c2ccccc2)OC1C1OC(c2ccccc2)OC1CO (centres undefined)
inactive: [1] 98 % of control | [2] 96 % of control | [3] 98 % of control

O=C1N(c2nncs2)CCN1[N+](=O)[O-]
inactive: [19] 95 % of control | [16] 95 % of control | [20] 98 % of control | [17] 98 % of control | [21] 103 % of control | [18] 102 % of control

O=C(NCc1ccncc1)Nc1ccccc1F
inactive: [10] 93 % of control | [19] 100 % of control | [7] 94 % of control and 103 % of control | [16] 94 % of control | [11] 104 % of control | [20] 98 % of control and 105 % of control | [8] 101 % of control and 91 % of control | [17] 97 % of control

CCCC[As](=O)(O)CC
inactive: [22] 104 % of control

COC1=CCC2=C(CCO2)C1
inactive: dose: 100.0 mg/kg/injection, schedule: Q04DX003 (ip), vehicle: acetone 95 % of control | dose: 200.0 mg/kg/injection, schedule: Q04DX003 (ip), vehicle: acetone 95 % of control | dose: 400.0 mg/kg/injection, schedule: Q04DX003 (ip), vehicle: acetone 96 % of control
